# In patent US20210212998A1, “Combinations of Tie-2 Activators and Prostaglandins and Uses Thereof” (Aerpio Pharmaceuticals, Inc., priority 2020, published 2021):
# Where two headings read alike, the source gives them in different places.
# What was measured:
# [1] = test system: human subjects with OHT/POAG; assay: Phase 1b trial: conjunctival hyperemia, safety and tolerability; assay type: in vivo
# Experimental: A randomized, double-masked Phase 1b trial was designed to assess safety, tolerability, and efficacy of a Tie-2 activator (Compound 1) as an adjunctive therapy to prostaglandins for treatment of ocular hypertension (OHT) or primary open angle glaucoma (POAG). The study assessed the effects of increasing concentrations of Compound 1 dosed topically as eye drops (5 mg/mL QD, 15 mg/mL QD, 40 mg/mL QD, and 40 mg/mL BID) in 4 sequential cohorts of 12 subjects, randomized 3:1 to receive Compound 1 or placebo, for 7 days. Conjunctival hyperemia and IOP were assessed at 0 (pre-dose), 2 hours, 4 hours, and 8 hours post-dose on Day −1 (baseline), Day 1 (first day of Compound 1 dosing), and Day 7 (last day of dosing).
# In this study, 36 human subjects with OHT/POAG and baseline IOP measurements between 17 and 27 mmHg (inclusive) undergoing once-daily prostaglandin therapy were recruited. Subjects were randomized 3:1 to once-daily, 40 mg/mL Compound 1 (27 subjects), or placebo (9 subjects) in the morning (AM) for 7 days while continuing once-daily prostaglandin therapy in the evening (PM). Compound 1 (40 mg/mL) was a sodium salt formulated in 15% HPβCD and 1% mannitol. The Compound 1 ophthalmic solution was adjusted to a pH of 6.5-7.5 with 1N hydrochloric acid and/or IN sodium hydroxide prior to sterile filtration. Placebo was the same solution as the vehicle for the Compound 1 ophthalmic solution. Each dose of study medication (Compound 1 or placebo) was administered as one drop (30 μL) of dosing solution per eye in each subject. Compound 1 was administered to each eye (except on Day 1 and 2 in Cohort 1 in which only the right eye received Compound 1) by the topical ocular route using a dropper bottle to deliver eye drops. Compound 1 was administered for 7 days as a single morning dose daily. […]
# IOP was measured pre-dose (0 hr), 2 hrs, 4 hrs, and 8 hrs post-dose on Day −1, Day 1, and Day 7. […] Visual field testing, conjunctival hyperemia and IOP were also assessed. IOP was assessed by Goldmann applanation tonometry in both eyes at screening, baseline, and during treatment as indicated. […]
# [2] = cited from earlier work
# [3] = test system: patients with mean baseline intraocular pressure of 24-25 mmHg; settings: cited from earlier work
compound,measurement,setting,value
COC(=O)N[C@@H](Cc1ccccc1)C(=O)N[C@@H](Cc1ccc(NS(=O)(=O)O)cc1)c1csc(-c2cccs2)n1 [Compound 1],change in hyperemia over baseline,[1]; 2 hours post-dose,small increase
same,tolerability of topical ocular administration,[1]; 7 day study,well-tolerated
same,time by which hyperemia returned to baseline levels,[1]; post-dose,≤ 8 h
"CC(C)OC(=O)CCC/C=C\C[C@@H]1[C@@H](CC[C@@H](O)CCc2ccccc2)[C@H](O)C[C@@H]1O [Latanoprost, latanoprost]",distribution volume,[2]; humans,0.16 ± 0.02 L/kg
same,administered dose recovered in the urine,[2]; intravenous dosing,~98%
same,administered dose recovered in the urine,[2]; topical dosing,about 88%
same,reductions in IOP,"[3]; baseline IOP 24-25 mmHg, treated for 6 months, multi-center randomized controlled trials",6-8 mmHg
same,start of reduction of the intraocular pressure after administration,"[3]; human, in vivo",3 to 4 h
same,time at which the maximum effect is reached,"[3]; human, in vivo",8 to 12 h
O=C(O)CCC/C=C\C[C@@H]1[C@@H](CC[C@@H](O)CCc2ccccc2)[C@H](O)C[C@@H]1O [acid of latanoprost],"t1/2, elimination from human plasma",[2]; after both intravenous and topical administration,17 min
same,Systemic clearance,[2]; human,approximately 7 mL/min/kg
